This is an account of results in patent US20240025905A1, “SALTS OF DIHYDROPYRIMIDINE DERIVATIVES, COMPLEXES AND USES THEREOF IN MEDICINE” (SUNSHINE LAKE PHARMA CO., LTD., priority 2020, published 2024).

Like-named read-outs stand apart in the source and are kept apart here.

As usually defined, the Cmax is the maximum level reached in the sampled fluid or tissue.

Data set [1] can be described thus: Stability test (high temperature, high humidity and light tests). The format is physicochemical. As to conditions: for stability (in words): high temperature, high humidity or light conditions for 10 days; for stability under high temperature (in words): high temperature (such as 60° C.). As for the experimental part: High temperature test: An appropriate amount of the test product was added into a flat weighing bottle and spread into a thin layer with thickness ≤5 mm. The bottle was placed at 60° C. or 40° C. for 10 days. Samples were taken at the 5th and 10th days to check the appearance, related substances and purity.
High humidity test: An appropriate amount of the test product was added into a flat weighing bottle and spread into a thin layer with thickness 5 mm. The bottle was placed at 25° C. and a relative humidity of 90%±5% for 10 days. Samples were taken at the 5th and 10th days to check the appearance, related substances and purity. At the same time, the weight of the test product before and after the test were accurately weighed to investigate the moisture absorption and deliquescence performance of the test product. Light test: An appropriate amount of the test product was added into a flat weighing bottle and spread into a thin layer with thickness ≤5 mm. The bottle was opened and placed in a light box (with UV) at the illuminance 4500±500 lx, UV light≥0.7 w/m^2 for 10 days. Samples were taken at the 5th and 10th days to check the appearance, related substances and purity.

A short description of data set [2]: Pharmacokinetic evaluation of experimental animals after oral administration. The format is in vivo, Beagle dogs. As to conditions: for AUC0-t / Cmax: beagle dogs, oral via capsules, 10 mg/kg; for absorption in the body / in animals (in words): in vivo; for exposure / pharmacokinetic properties (in words): experimental animals, oral. As to the method:
Blood samples were taken at 0.25, 0.5, 1, 2, 4, 6, 8 and 24 hours from forelimb vein after the administration, and collected in anticoagulation tube with EDTA-K2. After liquid-liquid extraction, the blood samples were quantitatively analyzed on a triple quadrupole tandem mass spectrometer using multiple reactive ion monitoring (MRM). Pharmacokinetic parameters (AUC0-t and Cmax) were calculated using a noncompartmental method by WinNonLin 6.3 software.

The nature of data set [3]: Experimental research on hygroscopicity. As to conditions: 25° C.±1° C., relative humidity 90%±2%, 24 hours. In kind it is physicochemical. As to the method: A dry stoppered glass weighing bottle (outer diameter was 50 mm, height was 15 mm) was placed in a suitable constant temperature dryer (a saturated solution of ammonium chloride or ammonium sulfate was placed at the bottom, the relative humidity was within 90%±2%) at 25° C.±1° C. the day before, and the weighing bottle was precisely weighed (m1). An appropriate amount of the test product was spread flat in the above weighing bottle. The thickness of the test product was generally about 1 mm, and the weighing bottle was precisely weighed (m2). The weighing bottle was opened and placed for 24 hours under the above constant temperature and humidity conditions with the bottle cap. The weighing bottle was closed and precisely weighed (m3), and the weight gain percentage (%) was calculated. Testing method: According to Ph.

Data set [4] concerns HBV. As to conditions: PCT application WO2019076310A1; cited from earlier work.
Setting [5] is: High humidity (90% RH), 25° C., 5 days.
The mark [6] stands for this setting: High humidity (90% RH), 25° C., 10 days.
[7] abbreviates: High temperature (60° C.), 5 days.
Setting [8] is: High temperature (60° C.), 10 days.
Setting [9] is: Light (4500±500 lx, UV light≥0.7 w/m^2), 5 days.
Setting [10] is: Light (4500±500 lx, UV light≥0.7 w/m^2), 10 days.

For the compound `COC(=O)C1=C(CN2CCN3C(=O)N(c4ccc(CCC(=O)O)cc4F)C[C@@H]3C2)N=C(c2nccs2)N[C@H]1c1ccc(F)cc1Cl.Cl` [3-(4-((S)-7-(((R)-6-(2-chloro-4-fluorophenyl)-5-(methoxycarbonyl)-2-(thiazol-2-yl)-1,6-dihydropyrimidin-4-yl)methyl)-3-oxohexahydroimidazo[1,5-a]pyrazine-2(3H)-yl)-3-fluorophenyl)prop ionic acid hydrochloride crystal form A], the “Purity (%)” value is 99.39% in data set [1] (0 days); 99.37% in data set [1] (setting [5]); 99.30% in data set [1] (setting [6]); 99.36% in data set [1] (setting [7]); 99.22% in data set [1] (setting [8]); 99.34% in data set [1] (setting [9]). The “Purity (%)” value in data set [1] (setting [10]) was found to be 99.26%. Further, the “stability (in words)” value in data set [1] is on record as “very good”. This compound also came in with an AUC0-t in data set [2] of 8630 ng·h/mL. The compound also had a Cmax in data set [2] of 4980 ng/mL. Moreover, in data set [2] (dog), the “absorption in the body / in animals (in words)” value is reported as “better absorbed”. Moreover, the “exposure / pharmacokinetic properties (in words)” value in data set [2] is “higher exposure”. The “Weight gain of moisture absorption (%)” value in data set [3] is on record as 1.32%. Also, the hygroscopicity judgment entry in data set [3] was “slightly hygroscopicity”.
Consider `COC(=O)C1=C(CN2CCN3C(=O)N(c4ccc(CCC(=O)O)cc4F)C[C@@H]3C2)NC(c2nccs2)=N[C@H]1c1ccc(F)cc1Cl.N=C(N)NCCC[C@H](N)C(=O)O` [3-(4-((S)-7-(((R)-6-(2-chloro-4-fluorophenyl)-5-(methoxycarbonyl)-2-(thiazol-2-yl)-3,6-dihydropyrimidin-4-yl)methyl)-3-oxohexahydroimidazo[1,5-a]pyrazine-2(3H)-yl)-3-fluorophenyl)prop ionic acid L-arginine salt crystal form A], for which the “Purity (%)” value in data set [1] (0 days) was found to be 99.52%; in data set [1] (setting [5]), 99.38%; in data set [1] (setting [6]), 99.39%; in data set [1] (setting [7]), 99.46%; in data set [1] (setting [8]), 99.42%; in data set [1] (setting [9]) it was 99.10%. In addition, the “Purity (%)” value in data set [1] (setting [10]) was determined as 98.72%. The “stability (in words)” value in data set [1] is given as “very good”. For the same compound, the AUC0-t in data set [2] is 13100 ng·h/mL. For the same compound, the Cmax in data set [2] turned out to be 6810 ng/mL. For the same compound, in data set [2] (dog), the “absorption in the body / in animals (in words)” value is recorded as “better absorbed”. Besides, the “exposure / pharmacokinetic properties (in words)” value in data set [2] is on record as “higher exposure”. In addition, the “Weight gain of moisture absorption (%)” value in data set [3] is 1.34%. The hygroscopicity judgment result in data set [3] is “slightly hygroscopicity”.
Regarding `COC(=O)C1=C(CN2CCN3C(=O)N(c4ccc(CCC(=O)O)cc4F)C[C@@H]3C2)NC(c2nccs2)=N[C@H]1c1ccc(F)cc1Cl` [Compound having Formula (I), 3-(4-((S)-7-(((R)-6-(2-chloro-4-fluorophenyl)-5-(methoxycarbonyl)-2-(thiazol-2-yl)-3,6-dihydropyrimidin-4-yl)methyl)-3-oxohexahydroimidazo[1,5-a]pyrazine-2(3H)-yl)-3-fluorophenyl)propionic acid], the “Purity (%)” value in data set [1] (0 days) came to 98.61%; in data set [1] (setting [5]), 98.66%; in data set [1] (setting [6]) it was 98.75%; in data set [1] (setting [7]), 95.40%; in data set [1] (setting [8]), 94.07%; in data set [1] (setting [9]), 98.66%. For the same compound, the “Purity (%)” value in data set [1] (setting [10]) was 98.20%. Also, in data set [1], the “stability under high temperature (in words)” value is on record as “unstable”. For the same compound, the AUC0-t in data set [2] (dog, blood, read-out: AUC0-t) came out at 6340 ng·h/mL. In addition, in data set [2] (dog, blood, read-out: Cmax), the Cmax was determined as 3720 ng/mL. In data set [2] (dog), the “absorption in the body / in animals (in words)” value is “unsatisfactory”. Moreover, the “HBV inhibitory activity (in words)” value in data set [4] was “good HBV inhibitory activity”.
On to `COC(=O)C1=C(CN2CCN3C(=O)N(c4ccc(CCC(=O)O)cc4F)C[C@@H]3C2)N=C(c2nccs2)N[C@H]1c1ccc(F)cc1Cl.O=P(O)(O)O` [Phosphate crystal form A of the compound having Formula (Ia)] [3-(4-((S)-7-(((R)-6-(2-chloro-4-fluorophenyl)-5-(methoxycarbonyl)-2-(thiazol-2-yl)-1,6-dihydropyrimidin-4-yl)methyl)-3-oxohexahydroimidazo[1,5-a]pyrazine-2(3H)-yl)-3-fluorophenyl)prop ionic acid phosphate crystal form A], for which the “Purity (%)” value in data set [1] (0 days) was found to be 99.13%; in data set [1] (setting [5]) it was 99.04%; in data set [1] (setting [6]), 99.07%; in data set [1] (setting [7]) it was 98.86%; in data set [1] (setting [8]), 98.39%; in data set [1] (setting [9]) it was 99.03%. The “Purity (%)” value in data set [1] (setting [10]) is given as 99.06%. Moreover, the “stability (in words)” value in data set [1] is reported as “very good”. Besides, the AUC0-t in data set [2] stood at 4350 ng·h/mL. The Cmax in data set [2] amounted to 2690 ng/mL.
For `COC(=O)C1=C(CN2CCN3C(=O)N(c4ccc(CCC(=O)O)cc4F)C[C@@H]3C2)N=C(c2nccs2)N[C@H]1c1ccc(F)cc1Cl.O=P(O)(O)O` [Phosphate crystal form C of the compound having Formula (Ia)] [3-(4-((S)-7-(((R)-6-(2-chloro-4-fluorophenyl)-5-(methoxycarbonyl)-2-(thiazol-2-yl)-1,6-dihydropyrimidin-4-yl)methyl)-3-oxohexahydroimidazo[1,5-a]pyrazine-2(3H)-yl)-3-fluorophenyl)prop ionic acid phosphate crystal form C], the “Purity (%)” value was found to be 99.34% in data set [1] (0 days); 99.29% in data set [1] (setting [5]); 99.36% in data set [1] (setting [6]); 87.42% in data set [1] (setting [7]); 60.31% in data set [1] (setting [8]); 99.30% in data set [1] (setting [9]). The “Purity (%)” value in data set [1] (setting [10]) is 99.30%. In addition, the “stability under high temperature (in words)” value in data set [1] is given as “unstable”. For the same compound, in data set [2], the AUC0-t worked out at 1900 ng·h/mL. The compound also returned a Cmax in data set [2] of 907 ng/mL.
Take `COC(=O)C1=C(CN2CCN3C(=O)N(c4ccc(CCC(=O)O)cc4F)C[C@@H]3C2)N=C(c2nccs2)N[C@H]1c1ccc(F)cc1Cl.O=S(=O)(O)O` [Sulfate crystal form B of the compound having Formula (Ia)] [3-(4-((S)-7-(((R)-6-(2-chloro-4-fluorophenyl)-5-(methoxycarbonyl)-2-(thiazol-2-yl)-1,6-dihydropyrimidin-4-yl)methyl)-3-oxohexahydroimidazo[1,5-a]pyrazine-2(3H)-yl)-3-fluorophenyl)prop ionic acid sulfate crystal form B]: the “Purity (%)” value in data set [1] (0 days) is 98.98%; in data set [1] (setting [5]), 98.90%; in data set [1] (setting [6]) it was 98.94%; in data set [1] (setting [7]) it was 98.94%; in data set [1] (setting [8]), 98.68%; in data set [1] (setting [9]), 99.01%. Moreover, the “Purity (%)” value in data set [1] (setting [10]) was found to be 98.91%. The “stability (in words)” value in data set [1] is “very good”. The AUC0-t in data set [2] is 10840 ng·h/mL. Also, in data set [2], the Cmax amounted to 6620 ng/mL. Besides, the “absorption in the body / in animals (in words)” value in data set [2] (dog) is “better absorbed”. The “exposure / pharmacokinetic properties (in words)” value in data set [2] was “higher exposure”. In addition, the “Weight gain of moisture absorption (%)” value in data set [3] was determined as 0.97%. Further, the hygroscopicity judgment result in data set [3] is “slightly hygroscopicity”.
